According to patent US20260184710A1, “CASITAS B-LINEAGE LYMPHOMA PROTOONCOGENE B (CBL-B) DEGRADING COMPOUNDS AND ASSOCIATED METHODS OF USE” (Arvinas Operations, Inc., priority 2022, published 2026):

Experiments:
[1] = target: T1, Cbl-b (Homo sapiens, UniProt Q13191); assay: Cbl-b Degradation Method A (FACS, anti-Cbl-b antibody staining); type: cell-based; conditions: Cbl-b-HiBit KI Jurkat Cells, incubated at least 20 hours; for DC50: half maximal degradation, read-out: Cbl-b Degredation Method A IC50; for Dmax: Jurkat, maximum degradation observed, read-out: Cbl-b Degredation Method A Dmax (%)
T1 construct: Cbl-b-HiBit KI Jurkat Cells were purchased from Promega; host or cells: Cbl-b-HiBiT knock-in Jurkat cells
Procedure, shortened: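 Cbl-b-HiBit KI Jurkat cells treated with compound for at least 20 h at 37 °C, then fixed, permeabilized and stained with anti-Cbl-b antibody plus anti-rabbit AF488 secondary. Cbl-b levels read by FACS; DC50 and Dmax (percent of control) derived.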

[2] = target: T1, Cbl-b; assay: Cbl-b Degradation Method B (Nano-Glo HiBiT lytic detection); type: cell-based; conditions: Cbl-b-HiBit KI Jurkat Cells, incubated at least 6-24 hours; for DC50: half maximal degradation, read-out: Cbl-b Degredation Method B IC50; for Dmax / Cbl-b Degredation Method B Dmax (%): maximum degradation observed; for Dmax: read-out: Cbl-b Degredation Method B Dmax (%)
Procedure, shortened: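 Cbl-b-HiBiT knock-in Jurkat cells (20,000/well) were treated after ~24 h plating with an 11-point 1:3 series for 6-24 h at 37° C. Remaining Cbl-b measured by Nano-Glo HiBiT lytic luminescence. DC50 and Dmax expressed as % of control.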

T1 sequence (Q13191 whole entry): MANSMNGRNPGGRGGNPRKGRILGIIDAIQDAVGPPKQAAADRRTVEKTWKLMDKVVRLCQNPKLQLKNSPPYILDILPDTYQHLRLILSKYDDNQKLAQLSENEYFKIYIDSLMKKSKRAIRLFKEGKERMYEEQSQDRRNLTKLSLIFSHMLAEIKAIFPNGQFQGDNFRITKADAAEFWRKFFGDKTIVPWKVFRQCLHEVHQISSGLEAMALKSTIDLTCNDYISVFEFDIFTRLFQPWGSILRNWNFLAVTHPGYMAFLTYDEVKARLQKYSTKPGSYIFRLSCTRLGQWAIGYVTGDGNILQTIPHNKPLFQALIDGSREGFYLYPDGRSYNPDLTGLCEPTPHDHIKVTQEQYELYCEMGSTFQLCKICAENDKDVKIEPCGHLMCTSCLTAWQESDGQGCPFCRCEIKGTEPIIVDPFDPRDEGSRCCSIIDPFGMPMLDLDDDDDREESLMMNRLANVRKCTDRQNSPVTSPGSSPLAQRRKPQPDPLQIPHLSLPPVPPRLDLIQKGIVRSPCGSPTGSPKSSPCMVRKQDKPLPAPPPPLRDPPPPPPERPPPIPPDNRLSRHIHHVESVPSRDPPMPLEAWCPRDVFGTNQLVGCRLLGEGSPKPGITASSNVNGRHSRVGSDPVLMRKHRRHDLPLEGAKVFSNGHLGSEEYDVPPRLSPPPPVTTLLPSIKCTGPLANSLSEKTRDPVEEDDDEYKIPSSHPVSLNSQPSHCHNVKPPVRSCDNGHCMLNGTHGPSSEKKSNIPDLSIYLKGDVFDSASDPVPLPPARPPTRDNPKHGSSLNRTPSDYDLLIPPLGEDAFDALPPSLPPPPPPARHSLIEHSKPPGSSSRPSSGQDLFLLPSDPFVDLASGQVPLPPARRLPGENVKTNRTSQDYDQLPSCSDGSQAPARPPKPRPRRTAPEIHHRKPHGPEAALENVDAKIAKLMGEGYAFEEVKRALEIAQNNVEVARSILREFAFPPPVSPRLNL

DC50 [1] [nM]	Dmax [1] [%]	DC50 [2] [nM]	Dmax [2] [%]	Cbl-b Degredation Method B Dmax (%) [2]	SMILES
5 to 50	35 to 70	< 5	35 to 70		CC1c2nc(N3CCC(OC4CCC(CN5CCN(Cc6cc7c(c(C(F)(F)F)c6)CN(c6cccc(C8(Cc9nncn9C)COC8)c6)C7=O)C[C@H]5C)CC4)CC3)ccc2C(=O)N1C1CCC(=O)NC1=O (stereo partly drawn) [Example 238, 3-[7-methyl-5-oxo-2-(4-{[(1rs,4rs)-4-{[(2R)-2-methyl-4-{[2-(3-{3-[(4-methyl-4H-1,2,4-triazol-3-yl)methyl]oxetan-3-yl}phenyl)-3-oxo-7-(trifluoromethyl)-2,3-dihydro-1H-isoindol-5-yl]methyl}piperazin-1-yl]methyl}cyclohexyl]oxy}piperidin-1-yl)-5H,6H,7H-pyrrolo[3,4-b]pyridin-6-yl]piperidine-2,6-dione]
5 to 50	35 to 70	< 5	35 to 70		CC1CC(CN2CCC(CC3CCN(c4ccc5c(c4)C(=O)N(C4CCC(=O)NC4=O)C5=O)CC3)CC2)CN(Cc2cc3c(c(C(F)(F)F)c2)CN(c2cccc(C4(Cc5nncn5C)COC4)c2)C3=O)C1 (stereo not drawn) [Example 94, 2-(2,6-dioxopiperidin-3-yl)-5-[4-({1-[(5-methyl-1-{[2-(3-{3-[(4-methyl-4H-1,2,4-triazol-3-yl)methyl]oxetan-3-yl}phenyl)-3-oxo-7-(trifluoromethyl)-2,3-dihydro-1H-isoindol-5-yl]methyl}piperidin-3-yl)methyl]piperidin-4-yl}methyl)piperidin-1-yl]-2,3-dihydro-1H-isoindole-1,3-dione]
5 to 50	35 to 70	50 to 500		B (35 < B < 70)	Cn1cnnc1CC1(c2cccc(N3Cc4c(cc(CN5CCN(C[C@H]6CC[C@H](OC7CCN(c8cccc9c8ncn9C8CCC(=O)NC8=O)CC7)CC6)CC5(C)C)cc4C(F)(F)F)C3=O)c2)CC(C#N)C1 (stereo partly drawn) [Example 314, (1r**,3r**)-3-(3-{6-[(2,2-dimethyl-4-{[(1r*,4r*)-4-({1-[1-(2,6-dioxopiperidin-3-yl)-1H-1,3-benzodiazol-4-yl]piperidin-4-yl}oxy)cyclohexyl]methyl}piperazin-1-yl)methyl]-1-oxo-4-(trifluoromethyl)-2,3-dihydro-1H-isoindol-2-yl}phenyl)-3-[(4-methyl-4H-1,2,4-triazol-3-yl)methyl]cyclobutane-1-carbonitrile]
50 to 500		> 500			Cn1cnnc1CC1(c2cccc(N3Cc4c(cc(CN5CCC[C@H](CN6CCC(CC7CCN(c8ccc9c(c8)C(=O)N(C8CCC(=O)NC8=O)C9=O)CC7)CC6)C5)cc4C(F)(F)F)C3=O)c2)COC1 (stereo partly drawn) [Example 111, 2-(2,6-dioxopiperidin-3-yl)-5-{4-[(1-{[(3R)-1-{[2-(3-{3-[(4-methyl-4H-1,2,4-triazol-3-yl)methyl]oxetan-3-yl}phenyl)-3-oxo-7-(trifluoromethyl)-2,3-dihydro-1H-isoindol-5-yl]methyl}piperidin-3-yl]methyl}piperidin-4-yl)methyl]piperidin-1-yl}-2,3-dihydro-1H-isoindole-1,3-dione]
50 to 500		> 500			CC1CC(N2CCC(CC3CCN(c4ccc5c(c4)C(=O)N(C4CCC(=O)NC4=O)C5=O)CC3)CC2)CN(Cc2cc3c(c(C(F)(F)F)c2)CN(c2cccc(C4(Cc5nncn5C)COC4)c2)C3=O)C1 (stereo not drawn) [Example 95, 2-(2,6-dioxopiperidin-3-yl)-5-{4-[(5′-methyl-1′-{[2-(3-{3-[(4-methyl-4H-1,2,4-triazol-3-yl)methyl]oxetan-3-yl}phenyl)-3-oxo-7-(trifluoromethyl)-2,3-dihydro-1H-isoindol-5-yl]methyl}-[1,3′-bipiperidin]-4-yl)methyl]piperidin-1-yl}-2,3-dihydro-1H-isoindole-1,3-dione]
< 5	> 70	< 5	35 to 70		Cn1cnnc1CC1(c2cccc(N3Cc4c(cc(CN5CCN(C[C@H]6CC[C@H](OC7CCN(c8ccc9c(c8F)CN(C8CCC(=O)NC8=O)C9=O)CC7)CC6)CC5)cc4C(F)(F)F)C3=O)c2)COC1 (stereo partly drawn) [Example 2, 3-[4-fluoro-1-oxo-5-(4-{[(1r, 4r)-4-[(4-{[2-(3-{3-[(4-methyl-4H-1,2,4-triazol-3-yl)methyl]oxetan-3-yl}phenyl)-3-oxo-7-(trifluoromethyl)-2,3-dihydro-1H-isoindol-5-yl]methyl}piperazin-1-yl)methyl]cyclohexyl]oxy}piperidin-1-yl)-2,3-dihydro-1H-isoindol-2-yl]piperidine-2,6-dione]
5 to 50	35 to 70	< 5		C (C ≤ 35)	CC1c2nc(N3CCC(CN4CCC(CN5CCN(Cc6cc7c(c(C(F)(F)F)c6)CN(c6cccc([C@]8(Cc9nncn9C)C[C@@H](C#N)C8)c6)C7=O)C(C)(C)C5)CC4)CC3)ccc2C(=O)N1C1CCC(=O)NC1=O (stereo partly drawn) [Example 303, (1r,3r)-3-(3-{6-[(4-{[1-({1-[6-(2,6-dioxopiperidin-3-yl)-7-methyl-5-oxo-5H,6H,7H-pyrrolo[3,4-b]pyridin-2-yl]piperidin-4-yl}methyl)piperidin-4-yl]methyl}-2,2-dimethylpiperazin-1-yl)methyl]-1-oxo-4-(trifluoromethyl)-2,3-dihydro-1H-isoindol-2-yl}phenyl)-3-[(4-methyl-4H-1,2,4-triazol-3-yl)methyl]cyclobutane-1-carbonitrile]
50 to 500	35 to 70	< 5		C (C ≤ 35)	C[C@@H]1c2nc(N3CCC(O[C@H]4CC[C@H](CN5CCN(Cc6cc7c(c(C(F)(F)F)c6)CN(c6cccc(C8(Cc9nncn9C)CC(C#N)C8)c6)C7=O)C(C)(C)C5)CC4)CC3)ccc2C(=O)N1C1CCC(=O)NC1=O (single isomer, unassigned) [Example 306, (1r***,3r***)-3-(3-{6-[(2,2-dimethyl-4-{[(1r**,4r**)-4-({1-[(7R*)-6-(2,6-dioxopiperidin-3-yl)-7-methyl-5-oxo-5H,6H,7H-pyrrolo[3,4-b]pyridin-2-yl]piperidin-4-yl}oxy)cyclohexyl]methyl}piperazin-1-yl)methyl]-1-oxo-4-(trifluoromethyl)-2,3-dihydro-1H-isoindol-2-yl}phenyl)-3-[(4-methyl-4H-1,2,4-triazol-3-yl)methyl]cyclobutane-1-carbonitrile]
> 500		> 500			Cn1cnnc1CC1(c2cccc(N3Cc4c(cc(CN5CCCC(CN6CCN(c7ccc8c(c7)C(=O)N(C7CCC(=O)NC7=O)C8=O)CC6)C5)cc4C(F)(F)F)C3=O)c2)COC1 (stereo not drawn) [Example 76, 2-(2,6-dioxopiperidin-3-yl)-5-{4-[(1-{[2-(3-{3-[(4-methyl-4H-1,2,4-triazol-3-yl)methyl]oxetan-3-yl}phenyl)-3-oxo-7-(trifluoromethyl)-2,3-dihydro-1H-isoindol-5-yl]methyl}piperidin-3-yl)methyl]piperazin-1-yl}-2,3-dihydro-1H-isoindole-1,3-dione]
